According to patent US20260226222A1, “PROCESS FOR MANUFACTURING POLYURETHANE FOAM” (Galata Chemicals, LLC, priority 2023, published 2026):
“And” between values parts separate entries of the source, which are not always exact repeats. Identical values can stand only once. Like-named read-outs stand apart in the source and are kept apart here.

What was measured:
[1] = cited from earlier work
[2] = Catalytic Activity Test (Dielectric Polarization Analyzer SubCASE HT)
Method: Comparative catalytic activity of selected tin-containing catalysts was determined with the use of Dielectric Polarization Analyzer SubCASE HT (Format Messtechnik GmbH) that converts the dielectric conductivity signal to Pot Life and Cure Time (among others) of curing polymer systems. Pot Life was determined by the instrument as time between the mixing the reactants and beginning of the polymerization process at 10% reduction in dielectrical properties from the initial point. Cure Time is calculated as the time between the maximum cure rate point and the point at which the maximum rate is slowed down by 25%. The polyurethane test formulation used for screening catalytic activity of the selected tin-containing catalysts with the use of SubCASE HT is shown in Table 1.
The selected catalysts were tested at loadings of the same tin content. The following catalysts were tested for comparative catalytic activity: stannous di-2-ethylhexanoate, stannous dineodecanoate, stannous diricinoleate, dimethyltin dioleate and dimethyltin dineodecanoate. A catalyst was added to the polyol and mixed at 400 rpm until thoroughly dispersed. IPDI was then added to the polyol/catalyst mixture and mixed for 20 seconds at 400 rpm before introducing the mixture into the SubCASE HT instrument and starting the kinetics measurements. The instrument temperature was set to 30° C. Results of the comparative catalytic activity test for Pot Life and Cure Time of the selected tin-containing catalysts are in Table 2.

[3] = for Cream time / % Elongation / Density / Permeability / Resiliency / Tensile: catalyst 0.23 pphp
Method: In addition to the above Examples carried out in the screening polyurethane formulation, actual flexible polyurethane foam specimens were prepared and tested for their performance characteristics.
The flexible polyurethane foam formulation is in Table 4.
Testing results of the prepared foams are in Table 5.

[4] = reproductive toxicity / CMR status, current or as in Comments
[5] = same amount of tin (0.029 g), 30° C.

| Compound | CMR classification ([1]; current) | CMR classification [1, 4] | Cure Time [2, 5] [s] | Cure Time-Pot Life [2, 5] [s] | Pot Life [2, 5] [s] | Pot Life ([2]; same tin amount) | Cure Time ([2]; same tin amount) [s] | Cream time [3] [s] | elongation ([3]; foam) [%] | increase of elongation compared to Example Control 1 and Example Control 2 ([3]; foam) | % Elongation ([3]; foam) [%] | Density ([3]; foam) [lbs/ft3] | Permeability ([3]; foam) [scfm] | Resiliency ([3]; foam) [%] | Tensile ([3]; foam) [psi] | CMR Classification (mutagen) ([1]; mutagenicity) |
| --- | --- | --- | --- | --- | --- | --- | --- | --- | --- | --- | --- | --- | --- | --- | --- | --- |
| Dimethyltin dioleate | reprotoxicants of category 2 | Reprotox. of Cat. 2 | 1135 | 533 | 602 | 602 s | – | – | – | – | – | – | – | – | – | – |
| Dimethyltin dineodecanoate | reprotoxicants of category 2 | Reprotox. of Cat. 2 | 695 | 321 | 374 | 374 s | 695 | 18 | 107 | about 31% | 107 | 1.37 | 0.3 | 20 | 15 | – |
| Stannous diricinoleate | non-CMR | Not CMR | 895 | 335 | 560 | 560 s | 895 | – | – | – | – | – | – | – | – | – |
| Stannous di(2-ethylhexanoate) | – | – | 420 | 109 | 311 | 311 s | – | 17 | – | – | – | – | – | – | – | – |
| Dimethyltin diricinoleate | reprotoxicants of category 2 | Reprotox. of Cat. 2 | 928 | 457 | 471 | 471 s | 928 | 17 | – | – | 93 | 1.39 | 4.4 | 35 | 14 | – |
| CC(=O)[O-].CC(=O)[O-].[CH3][Sn+2][CH3] [Dimethyltin diacetate] | reprotoxicants of category 2 | Reprotox. of Cat. 2 | – | – | – | – | – | – | – | – | – | – | – | – | – | – |
| Dibutyltin dilaurate | reprotoxicants of category 1B | Reprotox. of Cat. 1B | – | – | – | – | – | – | – | – | – | – | – | – | – | Mutagen of Cat. 2 |
| Stannous dineodecanoate | non-CMR | Not CMR | 741 | 337 | 404 | 404 s and 471 s | 741 | 15 | 97 | – | 97 | 1.32 | 0.6 | 28 | 14 | – |
| Dioctyltin dilaurate | reprotoxicants of category 1B | Reprotox. of Cat. 1B | – | – | – | – | – | – | – | – | – | – | – | – | – | – |
